Inhibition data for 16 compounds are collected here from ChEMBL document CHEMBL2007661, “Compounds: GSK PKIS; Assays: UNC Frye lab” (2012).

Molecules are shown by their SMILES. Values joined by “and” are separate entries in the source; they are usually repeats but may differ in a detail not shown here. Equal values may be shown once.

The target of assay [1] is T1, Inhibitor of nuclear factor kappa-B kinase subunit alpha (Homo sapiens) (UniProt O15111).
T1 sequence (whole entry): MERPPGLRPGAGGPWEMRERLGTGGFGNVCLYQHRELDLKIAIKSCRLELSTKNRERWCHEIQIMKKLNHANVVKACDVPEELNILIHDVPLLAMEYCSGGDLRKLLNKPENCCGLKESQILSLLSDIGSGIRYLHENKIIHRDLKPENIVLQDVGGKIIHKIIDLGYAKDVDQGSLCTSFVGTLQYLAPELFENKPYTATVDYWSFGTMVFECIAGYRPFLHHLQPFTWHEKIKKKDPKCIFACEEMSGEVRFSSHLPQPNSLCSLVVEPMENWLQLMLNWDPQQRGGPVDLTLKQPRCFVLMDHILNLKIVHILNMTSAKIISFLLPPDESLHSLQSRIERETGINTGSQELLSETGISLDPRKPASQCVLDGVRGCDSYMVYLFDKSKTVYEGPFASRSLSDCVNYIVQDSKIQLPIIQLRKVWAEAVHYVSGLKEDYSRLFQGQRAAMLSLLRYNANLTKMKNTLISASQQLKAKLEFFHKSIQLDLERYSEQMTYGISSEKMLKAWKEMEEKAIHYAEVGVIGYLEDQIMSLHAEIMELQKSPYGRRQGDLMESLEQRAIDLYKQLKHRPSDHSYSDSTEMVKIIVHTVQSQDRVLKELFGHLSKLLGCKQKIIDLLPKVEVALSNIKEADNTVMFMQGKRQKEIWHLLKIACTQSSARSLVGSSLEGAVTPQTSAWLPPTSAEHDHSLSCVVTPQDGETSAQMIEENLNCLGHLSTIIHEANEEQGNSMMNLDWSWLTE
The note with it: at 1 µM.

Assay [2] deals with T2, Inhibitor of nuclear factor kappa-B kinase subunit beta (Homo sapiens) (UniProt O14920).
T2 sequence (whole entry): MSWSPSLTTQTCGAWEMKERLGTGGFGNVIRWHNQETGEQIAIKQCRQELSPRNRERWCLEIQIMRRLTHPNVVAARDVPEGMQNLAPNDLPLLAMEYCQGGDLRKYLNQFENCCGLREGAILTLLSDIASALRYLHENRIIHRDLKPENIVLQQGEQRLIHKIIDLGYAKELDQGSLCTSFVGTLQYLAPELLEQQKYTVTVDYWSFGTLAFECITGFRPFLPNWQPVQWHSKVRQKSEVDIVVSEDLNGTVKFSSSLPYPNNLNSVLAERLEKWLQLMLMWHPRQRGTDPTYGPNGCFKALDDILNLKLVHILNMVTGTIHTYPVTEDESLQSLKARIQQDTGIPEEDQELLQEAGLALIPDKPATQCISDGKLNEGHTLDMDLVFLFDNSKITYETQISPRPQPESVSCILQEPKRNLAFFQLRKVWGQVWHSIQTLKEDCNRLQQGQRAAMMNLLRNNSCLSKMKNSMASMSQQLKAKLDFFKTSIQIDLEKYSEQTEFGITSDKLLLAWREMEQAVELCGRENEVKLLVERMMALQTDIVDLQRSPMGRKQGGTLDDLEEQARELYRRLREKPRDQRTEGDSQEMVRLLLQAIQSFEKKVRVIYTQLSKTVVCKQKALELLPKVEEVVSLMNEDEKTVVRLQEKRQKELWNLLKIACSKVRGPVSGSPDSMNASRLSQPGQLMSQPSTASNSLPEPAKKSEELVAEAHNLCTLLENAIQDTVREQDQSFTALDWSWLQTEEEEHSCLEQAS
To be noted: at 1 µM.

Assay [3] concerns the target T3, Tyrosine-protein kinase Mer (Homo sapiens) (UniProt Q12866).
T3 sequence (whole entry): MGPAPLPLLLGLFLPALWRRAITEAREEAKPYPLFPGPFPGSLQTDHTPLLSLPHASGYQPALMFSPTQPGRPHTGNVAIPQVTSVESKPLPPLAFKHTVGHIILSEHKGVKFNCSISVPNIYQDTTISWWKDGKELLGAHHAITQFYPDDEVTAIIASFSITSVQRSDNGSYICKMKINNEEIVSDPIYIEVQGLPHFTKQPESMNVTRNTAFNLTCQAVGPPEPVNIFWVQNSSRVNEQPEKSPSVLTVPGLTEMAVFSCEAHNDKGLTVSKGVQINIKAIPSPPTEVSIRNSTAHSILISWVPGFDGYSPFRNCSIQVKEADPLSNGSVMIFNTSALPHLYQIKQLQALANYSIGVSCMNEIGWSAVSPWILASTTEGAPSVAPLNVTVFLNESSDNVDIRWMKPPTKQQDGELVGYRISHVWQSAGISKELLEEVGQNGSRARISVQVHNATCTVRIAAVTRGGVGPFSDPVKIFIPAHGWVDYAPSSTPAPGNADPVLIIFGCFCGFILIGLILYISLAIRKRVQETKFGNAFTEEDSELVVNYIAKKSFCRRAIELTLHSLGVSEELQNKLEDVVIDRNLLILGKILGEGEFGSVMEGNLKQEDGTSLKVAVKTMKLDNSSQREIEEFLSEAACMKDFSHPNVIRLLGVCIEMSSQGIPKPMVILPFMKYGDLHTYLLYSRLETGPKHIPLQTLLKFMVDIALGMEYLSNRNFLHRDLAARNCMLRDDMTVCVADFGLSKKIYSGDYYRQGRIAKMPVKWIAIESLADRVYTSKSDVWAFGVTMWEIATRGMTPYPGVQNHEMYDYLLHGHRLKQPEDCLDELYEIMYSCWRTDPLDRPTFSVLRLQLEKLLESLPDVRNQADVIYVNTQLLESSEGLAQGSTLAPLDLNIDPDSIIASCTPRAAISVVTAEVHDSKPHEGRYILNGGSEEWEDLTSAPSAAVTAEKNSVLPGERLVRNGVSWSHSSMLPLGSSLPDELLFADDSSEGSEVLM
The note with it: at 10 µM.

As to `CN(C)CCOc1ccc(-c2cc(-c3ccc4c(c3)CCC4=NO)c(-c3ccncc3)o2)cc1`, the inhibition in assay [1] is 0%; in assay [2] it was -1% and -3%; in assay [3] it was 1%.

For `CS(=O)(=O)CCNCc1cc(-c2cc3c(Nc4ccc(OCc5cccc(F)c5)c(Cl)c4)ncnc3s2)cs1`, the inhibition was 16% and 15% in assay [1]; -8% and 5% in assay [2]; -5% in assay [3].

`Fc1ccc(-c2ncn(C3CCNCC3)c2-c2ccnc(Oc3ccc(F)c(F)c3)n2)cc1`: the inhibition was 18% and 0% in assay [1]; -3% in assay [2]; 67% in assay [3].

Take `Cc1ccc(C(=O)NC2CC2)cc1-c1ccc2[nH]ncc2c1`: the inhibition in assay [1] amounted to 0%; in assay [2] it was 0%; in assay [3], 6%.

With `COc1cccc(-n2ncc3c(N/N=C/c4ccncc4)ncnc32)c1`, the inhibition is 1% and 4% in assay [1]; -2% in assay [2]; 84% in assay [3].

For the compound `CCOc1nccc2c1nc(-c1nonc1N)n2CC`, the inhibition in assay [1] was 15% and 18%; in assay [2] it was -2% and -3%; in assay [3], -3%.

As to `NS(=O)(=O)c1cccc(-c2cc3ccncc3cc2OCc2ccccc2)c1`, the inhibition in assay [1] was 2%; in assay [2], -4% and 2%; in assay [3] it was 74%.

For the compound `CCOc1ccc2c(-c3ccnc(Nc4cccc(C(F)(F)F)c4)n3)cnn2n1`, the inhibition is 1% in assay [1]; -3% and -6% in assay [2]; -2% in assay [3].

Turning to `O=C(O[C@H]1CN[C@H](C#Cc2cc3ncnc(Nc4ccc5c(ccn5Cc5cc(F)ccc5F)c4)c3s2)C1)N1CCOCC1`, the inhibition is -1% in assay [1]; 1% and 0% in assay [2]; 100% in assay [3].

On to `COc1cc2ncn(-c3cc(OCc4cccs4)c(C(N)=O)s3)c2cc1OC`, for which the inhibition in assay [1] is 5% and 3%; in assay [2] it was -5% and -6%; in assay [3], 4%.

Turning to `CC1=C(C(=O)Nc2ccc3[nH]ncc3c2)C(c2ccc(F)cc2)NC(=O)N1` (stereo not drawn), the inhibition was 4% and 5% in assay [1]; 4% and -2% in assay [2]; -2% in assay [3].

Consider `O=C1Nc2ccc(I)cc2C1=Cc1cc(Br)c(O)c(Br)c1`, for which the inhibition in assay [1] was 10% and 11%; in assay [2], 0%; in assay [3] it was -2%.

In the case of `O=C1Nc2ccccc2/C1=C/Nc1ccc(-n2cncn2)cc1`, the inhibition in assay [1] is 4% and 3%; in assay [2], -5% and -4%; in assay [3] it was 10%.

As to `CS(=O)(=O)CCNCc1nc(-c2ccc3ncnc(Nc4ccc(F)c(Cl)c4)c3c2)cs1`, the inhibition in assay [1] is 2%; in assay [2], -2% and -3%; in assay [3], -6%.

Take `NS(=O)(=O)c1cccc(N/C=C2\C(=O)Nc3ccccc32)c1`: the inhibition in assay [1] was 1% and 2%; in assay [2], -4% and -1%; in assay [3], 0%.

With `Cc1ccc2c(-c3ccnc(Nc4ccc5c(c4)OCCO5)n3)c(-c3ccc(C(F)(F)F)cc3)nn2n1`, the inhibition is 9% and 1% in assay [1]; -1% and -5% in assay [2]; -5% in assay [3].

Usually inhibition stands for the relative decrease from the control value, in per cent.
